Assay results reported in patent publication US11492385B2, “Long-acting co-agonists of the glucagon and GLP-1 receptors” (Merck Sharp & Dohme Corp., priority 2015, dated 2022).
Starred links: 1 amine or outer side, 2 acyl side, 3 side chain; linkers in the order of their positions; H or OH if unused. Non-standard residues stand in square brackets, D forms with d. Residues, ends and D or L forms follow the SMILES beside them. Groups on a side chain read outwards from the residue. *: point of attachment. C20 diacid = O=C(O)CCCCCCCCCCCCCCCCCCC(=O)*; C19 diacid = O=C(O)CCCCCCCCCCCCCCCCCC(=O)*; C18 diacid = O=C(O)CCCCCCCCCCCCCCCCC(=O)*; C16 diacid = O=C(O)CCCCCCCCCCCCCCC(=O)*; γGlu = O=C(O)[C@H](CCC(=O)[*:2])N[*:1]; Met(O2) = CS(=O)(=O)CC[C@H](N)C(=O)O; αMeD = C[C@](N)(CC(=O)O)C(=O)O; AEEA = NCCOCCOCC(=O)O; Aib = CC(C)(N)C(=O)O

Key:
[1] = biological target: T1, human GCGR (Homo sapiens, UniProt P47871); assay: cAMP activity assay, cells expressing human GCGR; format: cell-based; settings: for EC50: cAMP production, cells expressing human GCGR, assay buffer with or without 20% human serum (not stated which), read-out: GCGR EC50 human; for hGCGR/hGLP1R (hTone): ratio of human GCGR EC50 to human GLP1R EC50
T1 construct: expressed in transfected cells; kept under Blasticidin and Hygromycin selection
T1 sequence (P47871 26-477): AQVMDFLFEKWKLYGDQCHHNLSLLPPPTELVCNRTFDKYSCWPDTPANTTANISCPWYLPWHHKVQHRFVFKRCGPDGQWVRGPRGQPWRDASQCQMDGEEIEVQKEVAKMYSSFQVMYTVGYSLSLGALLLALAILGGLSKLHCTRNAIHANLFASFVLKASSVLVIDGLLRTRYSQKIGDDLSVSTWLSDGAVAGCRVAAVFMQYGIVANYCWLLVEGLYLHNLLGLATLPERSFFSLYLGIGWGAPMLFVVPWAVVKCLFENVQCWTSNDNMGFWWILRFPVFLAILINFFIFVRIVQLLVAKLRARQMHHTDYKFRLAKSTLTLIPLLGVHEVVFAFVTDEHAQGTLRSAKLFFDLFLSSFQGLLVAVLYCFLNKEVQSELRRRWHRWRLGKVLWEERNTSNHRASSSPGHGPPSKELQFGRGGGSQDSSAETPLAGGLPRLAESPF
Procedure, shortened: (§1)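 Peptides as 10-point titrations from DMSO tested on cells expressing human GLP1R or GCGR. cAMP measured by luminescent kit after overnight room-temperature incubation in the dark. EC50 from four-parameter logistic fit; native GLP-1 and glucagon as controls.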

[2] = biological target: T2, human GLP1R (Homo sapiens, UniProt P43220); assay: cAMP activity assay, cells expressing human GLP1R; format: cell-based; settings: cAMP production, assay buffer with or without 20% human serum (not stated which)
T2 construct: expressed in transfected cells; kept under Blasticidin and Hygromycin selection
T2 sequence (P43220 24-463): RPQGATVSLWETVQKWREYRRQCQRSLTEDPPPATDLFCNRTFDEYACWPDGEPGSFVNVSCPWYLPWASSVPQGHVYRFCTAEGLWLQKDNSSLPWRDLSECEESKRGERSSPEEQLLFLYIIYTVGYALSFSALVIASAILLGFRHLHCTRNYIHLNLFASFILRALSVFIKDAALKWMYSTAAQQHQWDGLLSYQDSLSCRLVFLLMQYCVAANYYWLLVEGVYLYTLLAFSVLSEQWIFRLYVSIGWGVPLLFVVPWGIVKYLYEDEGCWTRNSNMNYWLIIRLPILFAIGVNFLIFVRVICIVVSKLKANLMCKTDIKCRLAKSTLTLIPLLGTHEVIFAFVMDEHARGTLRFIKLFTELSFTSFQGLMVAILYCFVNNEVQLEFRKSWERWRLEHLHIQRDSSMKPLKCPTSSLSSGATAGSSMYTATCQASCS
Procedure, shortened: as §1

| SMILES | EC50 [1] [nM] | hGCGR/hGLP1R (hTone) [1] | EC50 [2] [nM] |
| --- | --- | --- | --- |
| CC(C)C[C@H](NC(=O)[C@H](Cc1ccc(O)cc1)NC(=O)[C@H](CCCCN)NC(=O)[C@H](CO)NC(=O)[C@H](Cc1ccc(O)cc1)NC(=O)[C@H](CC(=O)O)NC(=O)[C@H](CO)NC(=O)[C@@H](NC(=O)[C@H](Cc1ccccc1)NC(=O)[C@@H](NC(=O)CNC(=O)[C@H](CCC(N)=O)NC(=O)C(C)(C)NC(=O)[C@@H](N)Cc1c[nH]cn1)[C@@H](C)O)[C@@H](C)O)C(=O)N[C@@H](CC(=O)O)C(=O)N[C@@H](C)C(=O)N[C@@H](CCCNC(=N)N)C(=O)N[C@@H](C)C(=O)N[C@@H](C)C(=O)N[C@@H](CCC(N)=O)C(=O)N[C@@H](CCCCNC(=O)COCCOCCNC(=O)COCCOCCNC(=O)CC[C@H](NC(=O)CCCCCCCCCCCCCCCCCC(=O)O)C(=O)O)C(=O)N[C@@H](Cc1ccccc1)C(=O)N[C@H](C(=O)N[C@@H](CCC(N)=O)C(=O)N[C@@H](Cc1c[nH]c2ccccc12)C(=O)N[C@@H](CC(C)C)C(=O)N[C@@H](CCS(C)(=O)=O)C(=O)N[C@@H](CC(=O)O)C(=O)N[C@H](C(N)=O)[C@@H](C)O)C(C)C [compound 46] (H-H[Aib]QGTFTSDYSKYLDARAAQK([AEEA-AEEA-γGlu-C19 diacid])FVQWL[Met(O2)]DT-NH2; N-terminus assumed) | 0.5 | 1.83 | 0.28 |
| CC(C)C[C@H](NC(=O)[C@H](Cc1ccc(O)cc1)NC(=O)[C@H](CCCCN)NC(=O)[C@H](CO)NC(=O)[C@H](Cc1ccc(O)cc1)NC(=O)[C@H](CC(=O)O)NC(=O)[C@H](CO)NC(=O)[C@@H](NC(=O)[C@H](Cc1ccccc1)NC(=O)[C@@H](NC(=O)CNC(=O)[C@H](CCC(N)=O)NC(=O)C(C)(C)NC(=O)[C@@H](N)Cc1c[nH]cn1)[C@@H](C)O)[C@@H](C)O)C(=O)N[C@@H](CC(=O)O)C(=O)N[C@@H](C)C(=O)N[C@@H](CCCNC(=N)N)C(=O)N[C@@H](C)C(=O)N[C@@H](C)C(=O)N[C@@H](CCC(N)=O)C(=O)N[C@@H](CCCCNC(=O)COCCOCCNC(=O)COCCOCCNC(=O)CC[C@H](NC(=O)CCCCCCCCCCCCCCCCCCC(=O)O)C(=O)O)C(=O)N[C@@H](Cc1ccccc1)C(=O)N[C@H](C(=O)N[C@@H](CCC(N)=O)C(=O)N[C@@H](Cc1c[nH]c2ccccc12)C(=O)N[C@@H](CC(C)C)C(=O)N[C@@H](CCS(C)(=O)=O)C(=O)N[C@@H](CC(=O)O)C(=O)N[C@H](C(N)=O)[C@@H](C)O)C(C)C [compound 44] (H-H[Aib]QGTFTSDYSKYLDARAAQK([AEEA-AEEA-γGlu-C20 diacid])FVQWL[Met(O2)]DT-NH2; N-terminus assumed) | 0.22 | 0.92 | 0.24 |
| CC(C)C[C@H](NC(=O)[C@H](Cc1ccc(O)cc1)NC(=O)[C@H](CCCCN)NC(=O)[C@H](CO)NC(=O)[C@H](Cc1ccc(O)cc1)NC(=O)[C@H](CC(=O)O)NC(=O)[C@H](CO)NC(=O)[C@@H](NC(=O)[C@H](Cc1ccccc1)NC(=O)[C@@H](NC(=O)CNC(=O)[C@H](CCC(N)=O)NC(=O)C(C)(C)NC(=O)[C@@H](N)Cc1c[nH]cn1)[C@@H](C)O)[C@@H](C)O)C(=O)N[C@@H](CC(=O)O)C(=O)N[C@@H](C)C(=O)N[C@@H](CCCNC(=N)N)C(=O)N[C@@H](C)C(=O)N[C@@H](C)C(=O)N[C@@H](CCCCNC(=O)COCCOCCNC(=O)COCCOCCNC(=O)CC[C@H](NC(=O)CCCCCCCCCCCCCCCCCCC(=O)O)C(=O)O)C(=O)N[C@@H](CC(=O)O)C(=O)N[C@@H](Cc1ccccc1)C(=O)N[C@H](C(=O)N[C@@H](CCC(N)=O)C(=O)N[C@@H](Cc1c[nH]c2ccccc12)C(=O)N[C@@H](CC(C)C)C(=O)N[C@@H](CCS(C)(=O)=O)C(=O)N[C@@H](CC(=O)O)C(=O)N[C@H](C(N)=O)[C@@H](C)O)C(C)C [compound 43] (H-H[Aib]QGTFTSDYSKYLDARAAK([AEEA-AEEA-γGlu-C20 diacid])DFVQWL[Met(O2)]DT-NH2; N-terminus assumed) | 0.92 | 1.3 | 0.69 |
| CC(C)C[C@H](NC(=O)[C@H](Cc1ccc(O)cc1)NC(=O)[C@H](CCCCN)NC(=O)[C@H](CO)NC(=O)[C@H](Cc1ccc(O)cc1)NC(=O)[C@H](CC(=O)O)NC(=O)[C@H](CO)NC(=O)[C@@H](NC(=O)[C@H](Cc1ccccc1)NC(=O)[C@@H](NC(=O)CNC(=O)[C@H](CCC(N)=O)NC(=O)[C@@H](CO)NC(=O)[C@@H](N)Cc1c[nH]cn1)[C@@H](C)O)[C@@H](C)O)C(=O)N[C@@H](CC(=O)O)C(=O)N[C@@H](C)C(=O)N[C@@H](CCCNC(=N)N)C(=O)N[C@@H](C)C(=O)N[C@@H](C)C(=O)N[C@@H](CCC(N)=O)C(=O)N[C@@H](CCCCNC(=O)COCCOCCNC(=O)COCCOCCNC(=O)CC[C@H](NC(=O)CCCCCCCCCCCCCCC(=O)O)C(=O)O)C(=O)N[C@@H](Cc1ccccc1)C(=O)N[C@H](C(=O)N[C@@H](CCC(N)=O)C(=O)N[C@@H](Cc1c[nH]c2ccccc12)C(=O)N[C@@H](CC(C)C)C(=O)N[C@@H](CC(C)C)C(=O)N[C@@H](CC(=O)O)C(=O)N[C@H](C(N)=O)[C@@H](C)O)C(C)C [compound 3] (H-H[dS]QGTFTSDYSKYLDARAAQK([AEEA-AEEA-γGlu-C16 diacid])FVQWLLDT-NH2) | 0.05 | 0.23 | 0.2 |

The remaining lines, values ahead:

| EC50 [1] [nM] | hGCGR/hGLP1R (hTone) [1] | EC50 [2] [nM] | SMILES |
| --- | --- | --- | --- |
| 0.01 | 0.07 | 0.22 | CC(C)C[C@H](NC(=O)[C@H](Cc1ccc(O)cc1)NC(=O)[C@H](CCCCN)NC(=O)[C@H](CO)NC(=O)[C@H](Cc1ccc(O)cc1)NC(=O)[C@H](CC(=O)O)NC(=O)[C@H](CO)NC(=O)[C@@H](NC(=O)[C@H](Cc1ccccc1)NC(=O)[C@@H](NC(=O)CNC(=O)[C@H](CCC(N)=O)NC(=O)[C@@H](CO)NC(=O)[C@@H](N)Cc1c[nH]cn1)[C@@H](C)O)[C@@H](C)O)C(=O)N[C@@H](CC(=O)O)C(=O)N[C@@H](C)C(=O)N[C@@H](CCCNC(=N)N)C(=O)N[C@@H](C)C(=O)N[C@@H](C)C(=O)N[C@@H](CCC(N)=O)C(=O)N[C@@H](CCCCNC(=O)COCCOCCNC(=O)COCCOCCNC(=O)CC[C@H](NC(=O)CCCCCCCCCCCCCCC(=O)O)C(=O)O)C(=O)N[C@@H](Cc1ccccc1)C(=O)N[C@H](C(=O)N[C@@H](CCC(N)=O)C(=O)N[C@@H](Cc1c[nH]c2ccccc12)C(=O)N[C@@H](CC(C)C)C(=O)N[C@@H](CCS(C)(=O)=O)C(=O)N[C@@H](CC(=O)O)C(=O)N[C@H](C(N)=O)[C@@H](C)O)C(C)C [compound 15] (H-H[dS]QGTFTSDYSKYLDARAAQK([AEEA-AEEA-γGlu-C16 diacid])FVQWL[Met(O2)]DT-NH2) |
| 0.3 | 4.00 | 0.07 | CC(C)C[C@H](NC(=O)[C@H](Cc1ccc(O)cc1)NC(=O)[C@H](CCCCN)NC(=O)[C@H](CO)NC(=O)[C@H](Cc1ccc(O)cc1)NC(=O)[C@H](CC(=O)O)NC(=O)[C@H](CO)NC(=O)[C@@H](NC(=O)[C@H](Cc1ccccc1)NC(=O)[C@@H](NC(=O)CNC(=O)[C@H](CCC(N)=O)NC(=O)C(C)(C)NC(=O)[C@@H](N)Cc1c[nH]cn1)[C@@H](C)O)[C@@H](C)O)C(=O)N[C@@H](CC(=O)O)C(=O)N[C@@H](C)C(=O)N[C@@H](CCCNC(=N)N)C(=O)N[C@@H](C)C(=O)N[C@@H](C)C(=O)N[C@@H](CCCCNC(=O)COCCOCCNC(=O)COCCOCCNC(=O)CC[C@H](NC(=O)CCCCCCCCCCCCCCCCC(=O)O)C(=O)O)C(=O)N[C@@H](CC(=O)O)C(=O)N[C@@H](Cc1ccccc1)C(=O)N[C@H](C(=O)N[C@@H](CCC(N)=O)C(=O)N[C@@H](Cc1c[nH]c2ccccc12)C(=O)N[C@@H](CC(C)C)C(=O)N[C@@H](CCS(C)(=O)=O)C(=O)N[C@@](C)(CC(=O)O)C(=O)N[C@H](C(N)=O)[C@@H](C)O)C(C)C [compound 33] (H-H[Aib]QGTFTSDYSKYLDARAAK([AEEA-AEEA-γGlu-C18 diacid])DFVQWL[Met(O2)][αMeD]T-NH2) |
| 0.74 | 1.2 | 0.61 | CC(C)C[C@H](NC(=O)[C@H](CC(C)C)NC(=O)[C@H](CCCCN)NC(=O)[C@H](CO)NC(=O)[C@H](Cc1ccc(O)cc1)NC(=O)[C@H](CC(=O)O)NC(=O)[C@H](CO)NC(=O)[C@@H](NC(=O)[C@H](Cc1ccccc1)NC(=O)[C@@H](NC(=O)CNC(=O)[C@H](CCC(N)=O)NC(=O)C(C)(C)NC(=O)[C@@H](N)Cc1c[nH]cn1)[C@@H](C)O)[C@@H](C)O)C(=O)N[C@@H](CC(=O)O)C(=O)N[C@@H](C)C(=O)N[C@@H](CCCNC(=N)N)C(=O)N[C@@H](C)C(=O)N[C@@H](C)C(=O)N[C@@H](CCCCNC(=O)COCCOCCNC(=O)COCCOCCNC(=O)CC[C@H](NC(=O)CCCCCCCCCCCCCCCCC(=O)O)C(=O)O)C(=O)N[C@@H](CC(=O)O)C(=O)N[C@@H](Cc1ccccc1)C(=O)N[C@H](C(=O)N[C@@H](CCC(N)=O)C(=O)N[C@@H](Cc1c[nH]c2ccccc12)C(=O)N[C@@H](CC(C)C)C(=O)N[C@@H](CCS(C)(=O)=O)C(=O)N[C@@H](CC(=O)O)C(=O)N[C@H](C(N)=O)[C@@H](C)O)C(C)C [compound 76] (H-H[Aib]QGTFTSDYSKLLDARAAK([AEEA-AEEA-γGlu-C18 diacid])DFVQWL[Met(O2)]DT-NH2; N-terminus assumed) |
